Results on twelve compounds are retold here after ChEMBL document CHEMBL1275399, “Novel potent orally active multitargeted receptor tyrosine kinase inhibitors: synthesis, structure-activity relationships, and antitumor activities of 2-indolinone derivatives” (J Med Chem, 2010).

The target in data set [1] is Platelet-derived growth factor receptor beta (Homo sapiens, UniProt P09619). The data set can be described thus: Inhibition of human PDGFRbeta after 30 mins by ELISA.
For data set [2], the target named is Mast/stem cell growth factor receptor Kit (Homo sapiens, UniProt P10721). As to the kind of experiment: Inhibition of c-Kit after 30 mins by ELISA. (In general: An ELISA detects its analyte on a solid surface through an enzyme-linked reagent.)
The nature of data set [3]: Clearance in Sprague-Dawley rat at 10 mg/kg, po and 10 mg/kg iv. The format is ADME, organism-based. To be noted: in vivo.
Data set [4] in a line: Volume of distribution in Sprague-Dawley rat at 10 mg/kg, po and 10 mg/kg iv. The format is ADME, organism-based. To be noted: in vivo.
The nature of data set [5]: Half life in Sprague-Dawley rat at 10 mg/kg, po and 10 mg/kg iv. The format is ADME, organism-based. To be noted: in vivo.
Data set [6] in a line: Cmax in Sprague-Dawley rat at 10 mg/kg, po and 10 mg/kg iv. To be noted: in vivo. It counts as ADME, organism-based.
The nature of data set [7]: Oral bioavailability in Sprague-Dawley rat at 10 mg/kg. It counts as ADME, organism-based. To be noted: in vivo.
The next data set deals with Rattus norvegicus. As to the kind of experiment: AUC in Sprague-Dawley rat at 40 mg/kg, po. The format is ADME, organism-based, Plasma. More on the design: dose 40 mg/kg, route oral. To be noted: in vivo.
Data set [8] has as its system HT-29. The data set can be described thus: Antitumor activity against human HT-29 cells xenografted in po dosed BALB/cA nude mouse assessed as inhibition of tumor growth administered 11 days after tumor implantation qd for 14 days. It counts as functional, organism-based.
Data set [9] has as its system HT-29. As to the kind of experiment: animal or person. To be noted: Mus musculus, HT-29, po, read-out: TGI.
Description: Antitumor activity against human HT-29 cells xenografted in BALB/cA nude mouse assessed as inhibition of tumor growth at 10 mg/kg, po administered 11 days after tumor implantation qd for 14 days
In data set [10] the test system is Mus musculus. As to the kind of experiment: Toxicity in human HT-29 cells xenografted BALB/cA nude mouse assessed as mortality at up to 30 mg/kg, po administered 11 days after tumor implantation qd for 14 days. It counts as organism-based. The arrangement: dose 30 mg/kg, route oral. To be noted: in vivo. A general note: In xenograft studies the graft and the host belong to different species.

Data set [11] relates to Mus musculus. As to the kind of experiment: Toxicity in human HT-29 cells xenografted BALB/cA nude mouse assessed as weight loss at up to 30 mg/kg, po administered 11 days after tumor implantation qd for 14 days. It counts as organism-based. The arrangement: dose 30 mg/kg, route oral. To be noted: in vivo.
Data set [12] deals with HT-29. As to the kind of experiment: animal or person. To be noted: Mus musculus, HT-29, po, read-out: TGI. This is another data set of the same source.
Description: Antitumor activity against human HT-29 cells xenografted in BALB/cA nude mouse assessed as inhibition of tumor growth at 30 mg/kg, po administered 11 days after tumor implantation qd for 14 days

Sequence of Mast/stem cell growth factor receptor Kit (P10721 whole entry): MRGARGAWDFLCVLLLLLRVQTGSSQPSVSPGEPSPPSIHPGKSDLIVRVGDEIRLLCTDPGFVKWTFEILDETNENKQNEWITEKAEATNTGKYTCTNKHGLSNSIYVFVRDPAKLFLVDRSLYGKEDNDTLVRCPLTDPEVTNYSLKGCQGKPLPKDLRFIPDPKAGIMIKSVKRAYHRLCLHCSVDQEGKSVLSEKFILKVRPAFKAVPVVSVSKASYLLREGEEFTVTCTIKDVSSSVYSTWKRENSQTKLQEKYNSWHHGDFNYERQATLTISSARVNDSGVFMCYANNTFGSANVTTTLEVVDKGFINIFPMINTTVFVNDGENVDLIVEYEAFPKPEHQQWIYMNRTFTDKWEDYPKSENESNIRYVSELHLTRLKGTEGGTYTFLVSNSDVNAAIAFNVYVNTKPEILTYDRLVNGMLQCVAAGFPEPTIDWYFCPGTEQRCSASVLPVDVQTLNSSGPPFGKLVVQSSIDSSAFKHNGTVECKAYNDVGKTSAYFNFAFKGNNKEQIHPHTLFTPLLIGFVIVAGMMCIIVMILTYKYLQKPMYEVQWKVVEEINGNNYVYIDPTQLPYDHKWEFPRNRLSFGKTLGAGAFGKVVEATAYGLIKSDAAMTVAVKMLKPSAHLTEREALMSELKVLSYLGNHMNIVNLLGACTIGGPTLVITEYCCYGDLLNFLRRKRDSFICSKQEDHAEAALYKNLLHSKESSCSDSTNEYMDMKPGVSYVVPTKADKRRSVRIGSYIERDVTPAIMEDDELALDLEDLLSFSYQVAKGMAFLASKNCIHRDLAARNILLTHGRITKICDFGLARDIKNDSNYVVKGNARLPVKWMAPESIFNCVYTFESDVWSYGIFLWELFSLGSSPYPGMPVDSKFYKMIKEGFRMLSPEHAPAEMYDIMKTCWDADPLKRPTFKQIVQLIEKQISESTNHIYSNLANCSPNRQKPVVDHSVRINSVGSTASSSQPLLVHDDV
Sequence of Platelet-derived growth factor receptor beta (P09619 whole entry): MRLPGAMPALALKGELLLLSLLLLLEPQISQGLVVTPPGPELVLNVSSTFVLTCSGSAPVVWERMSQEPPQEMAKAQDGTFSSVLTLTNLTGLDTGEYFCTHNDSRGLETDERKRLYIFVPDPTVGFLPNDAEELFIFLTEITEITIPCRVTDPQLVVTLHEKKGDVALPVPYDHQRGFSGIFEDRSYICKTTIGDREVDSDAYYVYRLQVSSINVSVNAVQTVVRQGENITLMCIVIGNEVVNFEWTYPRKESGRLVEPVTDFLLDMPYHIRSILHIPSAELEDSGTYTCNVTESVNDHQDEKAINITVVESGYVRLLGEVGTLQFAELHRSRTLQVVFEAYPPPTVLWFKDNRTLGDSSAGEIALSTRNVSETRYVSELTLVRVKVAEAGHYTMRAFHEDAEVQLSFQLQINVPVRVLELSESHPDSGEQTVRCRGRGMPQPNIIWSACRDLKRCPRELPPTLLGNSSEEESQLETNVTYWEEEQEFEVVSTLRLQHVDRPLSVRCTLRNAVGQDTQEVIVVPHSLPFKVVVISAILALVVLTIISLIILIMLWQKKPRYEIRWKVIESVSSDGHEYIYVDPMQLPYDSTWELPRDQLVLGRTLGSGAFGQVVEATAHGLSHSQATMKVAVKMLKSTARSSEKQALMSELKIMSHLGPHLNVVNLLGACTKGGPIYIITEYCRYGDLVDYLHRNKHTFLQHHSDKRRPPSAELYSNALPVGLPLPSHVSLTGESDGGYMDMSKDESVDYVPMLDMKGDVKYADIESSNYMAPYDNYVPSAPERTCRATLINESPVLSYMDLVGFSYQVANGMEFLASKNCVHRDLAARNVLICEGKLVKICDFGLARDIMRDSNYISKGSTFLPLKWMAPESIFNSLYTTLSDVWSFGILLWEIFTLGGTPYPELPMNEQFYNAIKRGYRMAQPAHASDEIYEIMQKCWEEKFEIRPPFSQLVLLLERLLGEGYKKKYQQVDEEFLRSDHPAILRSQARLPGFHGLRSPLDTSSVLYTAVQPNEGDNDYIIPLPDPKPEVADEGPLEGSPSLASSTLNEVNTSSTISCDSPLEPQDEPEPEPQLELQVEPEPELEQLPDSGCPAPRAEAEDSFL

Take `CCN(CC)CCN1CCCCc2[nH]c(/C=C3\C(=O)Nc4ccc(F)cc43)c(C)c2C1=O`: the IC50 in [1] worked out at 13 nM; in data set [2] it was 9 nM.
As for `CCN(CC)CCN1CCc2[nH]c(/C=C3\C(=O)Nc4ccc(Br)cc43)c(C)c2C1=O`, the figures for the IC50 in data set [1] and in data set [2] were 3 nM and 4 nM, respectively.
In the case of `CCN(CC)CCN1CCCc2[nH]c(/C=C3\C(=O)Nc4ccc(F)cc43)c(C)c2C1=O`, in data set [3], the clearance amounted to 22.8 mL/min/kg. This compound also showed a Vd in data set [4] of 18.8 L/kg. For the same compound, the IC50 in [1] was 10 nM; in data set [2], 4 nM. In data set [5], this compound showed a half-life of 9.65 h. In [6], this compound had a Cmax of 2410 ng/mL. In [7], this compound yielded a bioavailability of 65.8%. Moreover, in the data set on Rattus norvegicus, the AUC was determined as 27.61 ug/hr.ml.
Regarding `Cc1c(/C=C2\C(=O)Nc3ccc(F)cc32)[nH]c2c1C(=O)N(CCN(C)C)CC2`, the IC50 in data set [1] is 3 nM; in data set [2], 1 nM.
The like results for `CCN(CC)CCN1CCc2[nH]c(/C=C3\C(=O)Nc4ccc(Cl)cc43)c(C)c2C1=O` were, in that order, 2 nM and 4 nM.
The like results for `Cc1c(/C=C2\C(=O)Nc3ccc(F)cc32)[nH]c2c1C(=O)N(CCN1CCCC1)CC2` were, in that order, 4 nM and 3 nM.
For the compound `Cc1c(/C=C2\C(=O)Nc3ccc(F)cc32)[nH]c2c1C(=O)N(C[C@H](O)CN1CCOCC1)CCC2` [HENATINIB], the clearance in data set [3] was determined as 21 mL/min/kg. For the same compound, the Vd in [4] was determined as 5.1 L/kg. Also, the Activity entry in the data set with HT-29 [8] is “Dose-dependent effect”. Moreover, the figures for the IC50 in data set [1] and in data set [2] were 11 nM and 8 nM, respectively. The inhibition in vivo at 10 mg/kg in the data set with HT-29 [9] came out at 51.7%. Further, the half-life in data set [5] is 3.76 h. The compound also gave a Cmax in data set [6] of 9030 ng/mL. The compound further came in with a bioavailability in [7] of 55.2%. Moreover, the AUC in the data set with Rattus norvegicus was found to be 49.21 ug/hr.ml.
With `CCN(CC)CCN1CCc2[nH]c(/C=C3\C(=O)Nc4ccc(F)cc43)c(C)c2C1=O` [FAMITINIB], the clearance in data set [3] was 64.5 mL/min/kg. In data set [4], this compound came in with a Vd of 97.4 L/kg. In addition, the Activity result is “Dose-dependent effect” with HT-29 [8], “Toxic” in the data set on Mus musculus [10] and “Toxic” in the data set with Mus musculus [11]. Further, the half-maximal inhibitory concentration (IC50) is 4 nM in [1] and 2 nM in data set [2]. In addition, the inhibition in vivo at 10 mg/kg in the data set on HT-29 [9] came out at 49.8%. Also, the half-life in data set [5] is 18 h. The compound also yielded a Cmax in data set [6] of 450 ng/mL. In addition, the bioavailability in data set [7] came to 36.7%. Further, the AUC in the data set on Rattus norvegicus is recorded as 10.96 ug/hr.ml.
Consider `Cc1c(/C=C2\C(=O)Nc3ccc(F)cc32)[nH]c2c1C(=O)N(CCN1CCOCC1)CCC2`, for which the IC50 in [1] turned out to be 5 nM; in data set [2] it was 4 nM.
Turning to `CCN(CC)CCNC(=O)c1c(C)[nH]c(/C=C2\C(=O)Nc3ccc(F)cc32)c1C` [SUNITINIB], in the data set on HT-29 [8], the Activity result was “Dose-dependent effect”. Besides, the inhibition in vivo at 30 mg/kg in the data set on HT-29 [12] amounted to 53.8%.
Compound `Cc1c(/C=C2\C(=O)Nc3ccc(F)cc32)[nH]c2c1C(=O)N(C[C@H](O)CN1CCOCC1)CC2` had a clearance in data set [3] of 17 mL/min/kg. In addition, the Vd in data set [4] amounted to 4.13 L/kg. In addition, the IC50 in [1] amounted to 8 nM; in data set [2] it was 1 nM. In data set [5], this compound showed a half-life of 3.41 h. In data set [6], the highest level (Cmax) was 6110 ng/mL. In data set [7], this compound had a bioavailability of 50.7%. This compound also yielded an AUC in the data set with Rattus norvegicus of 41.18 ug/hr.ml.
In the case of `Cc1c(/C=C2\C(=O)Nc3ccc(F)cc32)[nH]c2c1C(=O)N(CCN1CCOCC1)CC2`, the IC50 was found to be 10 nM in data set [1] and 1 nM in data set [2].

Broadly, the IC50 is the concentration needed to halve the response being measured. Usually half-life stands for the time needed for the level to fall by half in the phase considered. A higher half-life goes with slow loss. As a reminder, the Cmax is the maximum level reached in the sampled fluid or tissue. Broadly, the bioavailability is the share of a dose that reaches the circulation, judged against a reference dose that is usually intravenous. Low readings indicate little systemic uptake, high ones much systemic uptake.
